Results: US8680076B2, “Methods of treatment, improvement and prevention using haloaryl substituted aminopurines” (Signal Pharmaceuticals, LLC, priority 2010, dated 2014)
Entries after “also recorded” stand apart in the source; their conditions may differ.

Columns and labels:
[1] = test system: phospho-c-Jun (JNK) in normal human epithelial keratinocytes (nHEK); experiment: UVB-stimulated JNK activation in nHEK cells (Western blot); assay type: cell-based
Method: Two in vitro systems, nHEK and the EpiDermFT™ skin model, were used in this study. The nHEK cells and EpiDermFT™ samples were pretreated with JNKi-1 at concentrations of 0.1, 3, and 10 μM prior to 60 mJ/cm^2 and 135 mJ/cm^2 UVB irradiation, respectively. After UV stimulation, the activities of JNK were measured as levels of phospho-c-Jun via immunoblotting of cell lysates using an anti-phospho-c-Jun S63 antibody. Phospho-Stat3 was also evaluated as a marker of JNK activation.
nHEK Model system. Normal human epithelial keratinocytes (nHEK) cells were grown after three passages. Cells were plated at 2×10^6/plate in 100 mm plates. Plates were incubated at 37° C., 5% CO2 for 5 days until ˜80% confluent. Each plate was washed with warm phosphate buffered saline (PBS) and replenished with 10 mL of media containing either 0, 0.1, 3, or 10 μM of JNKi-1 and incubated for 1 hour (hr) at 37° C. Eight mL of media were removed and set aside. Plates were irradiated with 60 mJ/cm^2 of UVB in a UV cross-linker machine and control plates were sham irradiated. The 8 mL of media set aside were returned to each plate and stored at 37° C. Cells were harvested at 30 minutes and 4 hr post UV treatment and lysed in ice cold cell extraction buffer. Lysates were stored at −80° C.
cells were pre-incubated with either dimethyl sulfoxide (DMSO) (FIG. 31, lanes 1, 2, and 12 to 15) or JNKi-1 at the indicated concentration (lanes 3 to 11) for 1 hr and then irradiated without (Control, lanes 1 and 2) or with UVB at 60 mJ/cm^2 (lanes 3 to 15). Cells were lysed 30 minutes after UV irradiation and cell lysates were subjected to sodium dodecyl sulfate polyacrylamide gel electrophoresis (SDS-PAGE) before Western blotting with anti-phospho-c-Jun antibody. […]
Western analysis: For Western blot analysis, 20 to 25 μg of total protein were applied to SDS-PAGE gels followed by electrophoresis and blotting. […] The intensity of each band was quantified by the Odyssey 2.1 software and exported into Excel for further analysis. […]

[2] = test system: c-Jun (JNK) in human skin; experiment: UVB-irradiated human skin, c-Jun IHC (3-way crossover study); assay type: in vivo; details: for median subjective score of c-Jun: scale 0-4
Method: The inhibitory effect of JNKi-1 on JNK was evaluated by assessing the status of the downstream substrate c-Jun (“cJun”) and phospho-c-Jun (or “p-cJun”) following UV irradiation of human skin.
The study was designed as randomized, double blind, placebo controlled, multiple dose, 3-way crossover study. Fifteen subjects were randomized to one of 3 sequences (5 subjects per sequence) as outlined below (see Table 3). There was a 7-day to 10 day washout period (no more than 14 days) from the last dose of the previous period to the first dose of the next period.
Fifteen patients enrolled, 14 completed the study and were included in the PD and PK analyses; all were healthy Caucasian male volunteers with Fitzpatrick skin type 2. The mean age was […] (20-49 years) and weight was 81 kg (64-96 kg). On the evening of Day-1, patients started fasting (at least an 8-hour fast prior to dosing on Day 1). Subjects received treatment A, B or C in Periods 1 to 3 under fasting conditions in an order based on the randomization scheme. Subjects went through the same procedures (except for the change in treatment) for all 3 periods, with the required washout in between periods. No strenuous activities were permitted during confinement. All efforts were made to keep activities, environment, food, procedures, and schedule between treatment periods identical.
On Day 6, subjects received a 2×MED UV dose to two sites on the buttock. One punch biopsy (approximately 3 mm in diameter by 0.8 mm in depth) was taken from one of the two UV irradiated sites. The punch biopsies were taken at 8 (±5 minutes) hours post UV exposure on Day 6.
Skin specimens from the biopsies was analyzed for phospho c-Jun and total c-Jun using IHC assay. Phospho c-Jun was quantified using a 0-4 subjective grading scales and/or objective scoring using an automated system, i.e. a laser scanning cytometer (LSC), evaluating the integrated intensity of staining measured optically.
Biopsies were analyzed following the procedures described below to evaluate phospho c-Jun and c-Jun expression using IHC assay. The method employed to assess JNK activation was a two antibody IHC assay that employed a primary antibody, directed against the target, and a secondary antibody conjugated with a chromogenic enzyme. Thus, the method was a two-step immunohistochemical assay designed to interrogate the target, c-Jun and phospho c-Jun. Any changes in JNK activity were measurable in the amounts of these target molecules, c-Jun and phospho c-Jun. The secondary antibody-reporter conjugate deposited a red color when incubated with the substrate reaction mix, thus marking the location of the primary antibody target complex. The red color was then recorded with standard bright-field illumination using a Nikon microscope. The microscope images were then photographed and electronic images were scored (blinded) by three independent and trained scorers using the following guidelines. A score of 0 indicated staining of 0-19% of the epithelial keratinocyte nuclei; a score of 1 indicated staining of 20-39% of the epithelial keratinocyte nuclei; a score of 2 indicated staining of 40-59% of the epithelial keratinocyte nuclei; a score of 3 indicated staining of 60-79% of the epithelial keratinocyte nuclei; and a score of 4 indicated staining of 80-100% of the epithelial keratinocyte nuclei. FIG. 21 depicts representative immunostaining for the respective scores.
For each tissue, a count of nuclei in the epithelial layer was obtained. All phospho c-Jun or c-Jun positive nuclei were counted as well as their integral (intensity). A score was calculated for each: score=(p-cJun or cJun positive nuclei×average Intensity)/Total nuclei.

## O[C@H]1CC[C@H](Nc2ncc3nc(Nc4c(F)cc(F)cc4F)n([C@H]4CCOC4)c3n2)CC1 [JNKi-1, 4-((9-((3S)-tetrahydro-3-furanyl)-8-((2,4,6-trifluorophenyl)amino)-9H-purin-2-yl)amino)-trans-cyclohexanol]
[1]; Homo sapiens, light or radiation study, nHEK, 1 hr pretreatment, UVB 60 mJ/cm^2, lysed 30 minutes after UV, read-out: IC50 for p-cJun
  IC50: 100 to 3000 nM
[1]; nHEK, 0.1, 3, 10 μM
  UVB-induced JNK activation (phospho-c-Jun level), in words: strongly Inhibits; also recorded: significantly blocks
[1]; nHEK, 30 minutes post UV, data not shown
  inhibition of phospho-Stat3: minimal
[2]; 75 mg QD x 6 days
  median subjective score of c-Jun: 3
[2]; 75 mg vs. placebo
  odds ratio, c-Jun scores 0, 1, 2 vs. scores 3, 4 (logistic regression): 3.69
[2]; 200 mg QD x 6 days
  median subjective score of c-Jun: 2
[2]; 200 mg vs placebo
  frequency of high c-Jun subjective scores: fewer subjects had high cJun scores; also recorded: fewer patients had high scores
[2]; 200 mg vs. placebo
  odds ratio, c-Jun scores 0, 1, 2 vs. scores 3, 4 (logistic regression): 9.30
[2]; versus placebo
  c-Jun immunostaining, percentage of positive epithelial nuclei, Patient 15: significantly decreased
